Data taken from patent US12643912B2, “Macrocyclic compounds, a process for their preparation and pharmaceutical compositions containing them” (LES LABORATOIRES SERVIER, priority 2020, dated 2026).
Like-named read-outs stand apart in the source and are kept apart here.

How the values were obtained:
[1] = tested on: Nrf2 (Keap1-NRF2 nuclear translocation); experiment: U2OS translocation assay (PathHunter U2OS Keap1-NRF2 Nuclear Translocation Cell Line); assay type: cell-based
How it was run: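 PathHunter U2OS line expressing Nrf2-enzyme-donor fusion and nuclear acceptor enzyme, 7 500 cells/well in Opti-MEM, 1% FBS. Compounds incubated 3 h at 37° C. Luminescence after 60 min with detection reagent, normalized between 1% DMSO and 10 μM andrographolide.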

Keap1 (A321-C624) (h) = biological target: T1, Keap1 (A321-C624) (h) (Homo sapiens, UniProt Q14145); experiment: Surface Plasmon Resonance binding assay to Kelch domain of KEAP1; settings: Biacore T200, 25° C., immobilized His-Thromb-KEAP1(A321-C624), single cycle kinetics, KD=kd/ka from 1:1 fit; read-out: Keap1 (A321-C624) (h) direct/SPR (KD)
T1 construct: His-Thromb-KEAP1(A321-C624) acquired from Novalix (batch PU-P01) was immobilized covalently by amine coupling; His tag (N); thrombin cleavage site (Thromb) (N); purchased Novalix batch PU-P01
T1 sequence (Q14145 321-624): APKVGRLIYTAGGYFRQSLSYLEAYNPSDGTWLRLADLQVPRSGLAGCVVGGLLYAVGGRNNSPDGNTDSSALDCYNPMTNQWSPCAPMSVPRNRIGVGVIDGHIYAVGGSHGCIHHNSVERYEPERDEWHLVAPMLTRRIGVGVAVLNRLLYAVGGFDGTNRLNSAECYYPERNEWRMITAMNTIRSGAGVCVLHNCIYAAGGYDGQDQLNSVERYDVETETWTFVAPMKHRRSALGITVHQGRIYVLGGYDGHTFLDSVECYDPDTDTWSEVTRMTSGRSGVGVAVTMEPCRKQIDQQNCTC
How it was run: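 His-Thromb-KEAP1(A321-C624) amine-coupled on CM5 chip to 1250 RU; amine blank reference. Run at 25° C in HEPES pH 7.4, 150 mM NaCl, 3 mM EDTA, 1 mM TCEP, 0.05% P20, 5% DMSO; 180 s association, 720 s dissociation, 50 μL/min. KD = kd/ka from 1:1 kinetic fit, double-referenced, DMSO solvent-corrected.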

[2] = read-out: CELLULAR U2OS EC50, U2OS Keap1-NRF2 nuclear translocation cells, 3 h incubation, luminescence, normalized between 1% DMSO and 10 μM andrographolide
[3] = Homo sapiens, U2OS, 3 h, read-out: CELLULAR U2OS EC50 (nM), U2OS Keap1-NRF2 nuclear translocation cells, 3 h incubation, luminescence, normalized between 1% DMSO and 10 μM andrographolide

| Kd (Keap1 (A321-C624) (h)) [nM] | SMILES | EC50 [1, 2] [nM] | EC50 [1, 3] [nM] |
| --- | --- | --- | --- |
| 4.32 | COCCC1CCOc2ccc3c(c2)CN([C@H](C)c2cc(ccc2C)[C@@H](CC(=O)O)c2ccc4c(nnn4C1)c2C)S(=O)(=O)O3 (single isomer, unassigned) [Example 24d] | 36.4 |  |
| 8.8 | COc1cc2cc3c1OS(=O)(=O)N(C3)[C@H](C)c1cc(ccc1C)[C@H](CC(=O)O)c1ccc3c(nnn3CCCCO2)c1C [Example 23b, [(2R,8S)-24-methoxy-2,4,31-trimethyl-27,27-dioxo-21,26-dioxa-27λ^6-thia-1,14,15,16-tetraazahexacyclo[20.5.3.1^3,70.1^9,130.0^12,160.0^25,29]dotriaconta-3(32),4,6,9(31),10,12,14,22,24,29-decaen-8-yl]acetic acid] |  | 344 |
| 0.562 | COc1cc2c3cc1OCCCCn1nnc4c(C)c(ccc41)C(CC(=O)O)c1ccc(C)c(c1)CN(C3)S(=O)(=O)O2 (single isomer, unassigned) [Example 25a, [23-Methoxy-4,31-dimethyl-27,27-dioxo-21,26-dioxa-27λ^6-thia-1,14,15,16-tetraazahexacyclo[20.5.3.1^3,70.1^9,130.0^12,160.0^25,29]dotriaconta-3(32),4,6,9(31),10,12,14,22,24,29-decaen-8-yl]acetic acid] | 14 |  |
| 0.685 | Cc1ccc2cc1CN1Cc3cc(ccc3N(C)S1(=O)=O)OCCCCn1nnc3c(C)c(ccc31)C2CC(=O)O (single isomer, unassigned) [Example 39b, [4,26,31-Trimethyl-27,27-dioxo-21-oxa-27λ^6-thia-1,14,15,16,26-pentaazahexacyclo[20.5.3.1^3,70.1^9,130.0^12,160.0^25,29]dotriaconta-3(32),4,6,9(31),10,12,14,22,24,29-decaen-8-yl]acetic acid] | 79.5 |  |
| 7450 | COc1cc2cc(c1OC)CN1Cc3cc(ccc3OS1(=O)=O)OCCCCn1nnc3c(C)c(ccc31)C2CC(=O)O (single isomer, unassigned) [Example 35b, [4,5-Dimethoxy-31-methyl-27,27-dioxo-21,26-dioxa-27λ^6-thia-1,14,15,16-tetraazahexacyclo[20.5.3.1^3,70.1^9,130.0^12,160.0^25,29]dotriaconta-3(32),4,6,9(31),10,12,14,22,24,29-decaen-8-yl]acetic acid] | > 3160 |  |
| 0.146 | Cc1ccc2cc1CN1Cc3cc(ccc3OS1(=O)=O)OC[C@H](O)CCn1nnc3c(C)c(ccc31)C2CC(=O)O (stereo partly drawn) [Example 44, [(19R)-19-hydroxy-4,31-dimethyl-27,27-dioxo-21,26-dioxa-27λ^6-thia-1,14,15,16-tetraazahexacyclo[20.5.3.1^3,70.1^9,130.0^12,160.0^25,29]dotriaconta-3(32),4,6,9(31),10,12,14,22,24,29-decaen-8-yl]acetic acid] |  | 292 |
| 19.3 | Cc1ccc2cc1CN1Cc3cc(ccc3OS1(=O)=O)Oc1ccccc1NCCCn1nnc3c(C)c(ccc31)C2CC(=O)O (single isomer, unassigned) [Example 71a, [4,37-Dimethyl-33,33-dioxo-27,32-dioxa-33λ^6-thia-1,14,15,16,20-pentaazaheptacyclo[26.5.3.1^3,70.1^9,130.0^12,160.0^21,260.0^31,35]octatriaconta-3(38),4,6,9(37),10,12,14,21,23,25,28,30,35-tridecaen-8-yl]acetic acid] |  | 42 |
| 9.29 | Cc1c(Cl)cc2cc1CN1Cc3cc(ccc3OS1(=O)=O)OCCCCn1nnc3c(C)c(ccc31)C2CC(=O)O (single isomer, unassigned) [Example 33b, [5-Chloro-4,31-dimethyl-27,27-dioxo-21,26-dioxa-27λ^6-thia-1,14,15,16-tetraazahexacyclo[20.5.3.1^3,70.1^9,130.0^12,160.0^25,29]dotriaconta-3(32),4,6,9(31),10,12,14,22,24,29-decaen-8-yl]acetic acid] | 894 |  |
| 4.39 | Cc1ccc2cc1CN1Cc3cc(ccc3OS1(=O)=O)OCCSCCn1nnc3c(C)c(ccc31)C2CC(=O)O (single isomer, unassigned) [Example 63a, [4,32-Dimethyl-28,28-dioxo-22,27-dioxa-19,28λ^6-dithia-1,14,15,16-tetraazahexacyclo[21.5.3.1^3,70.1^9,130.0^12,160.0^26,30]tritriaconta-3(33),4,6,9(32),10,12,14,23,25,30-decaen-8-yl]acetic acid] |  | 57.1 |
| 22.3 | COc1ccc2cc1[C@@H](C)N1Cc3cc(ccc3OS1(=O)=O)OCCCCCCn1nnc3c(C)c(ccc31)[C@@H]2CC(=O)O [Example 40b, [(2R,8R)-4-methoxy-2,33-dimethyl-29,29-dioxo-23,28-dioxa-29λ^6-thia-1,14,15,16-tetraazahexacyclo[22.5.3.1^3,70.1^9,130.0^12,160.0^27,31]tetratriaconta-3(34),4,6,9(33),10,12,14,24,26,31-decaen-8-yl]acetic acid] |  | 353 |

Continued, compound first:

| SMILES | Kd (Keap1 (A321-C624) (h)) [nM] | EC50 [1, 2] [nM] | EC50 [1, 3] [nM] |
| --- | --- | --- | --- |
| Cc1ccc2cc1CN1Cc3cc(cc(C)c3OS1(=O)=O)OCCCCn1nnc3c(C)c(ccc31)C2CC(=O)O (single isomer, unassigned) [Example 15a, [4,24,31-Trimethyl-27,27-dioxo-21,26-dioxa-27λ^6-thia-1,14,15,16-tetraazahexacyclo[20.5.3.1^3,70.1^9,130.0^12,160.0^25,29]dotriaconta-3(32),4,6,9(31),10,12,14,22,24,29-decaen-8-yl]acetic acid] | 1.92 | 57.9 |  |
| COc1cc2cc3c1OS(=O)(=O)N(Cc1cc(ccc1C)C(CC(=O)O)c1ccc4c(nnn4CCCCO2)c1C)C3 (single isomer, unassigned) [Example 16b, [24-Methoxy-4,31-dimethyl-27,27-dioxo-21,26-dioxa-27λ^6-thia-1,14,15,16-tetraazahexacyclo[20.5.3.1^3,70.1^9,130.0^12,160.0^25,29]dotriaconta-3(32),4,6,9(31),10,12,14,22,24,29-decaen-8-yl]acetic acid] | 1.73 | 108 |  |
| Cc1ccc2cc1CN1Cc3cc(ccc3OS1(=O)=O)OCCCCCn1nnc3c(C)c(ccc31)C2CC(=O)O (single isomer, unassigned) [Example 1a, [4,32-dimethyl-28,28-dioxo-22,27-dioxa-28λ^6-thia-1,14,15,16-tetraazahexacyclo[21.5.3.1^3,70.1^9,130.0^12,160.0^26,30]tritriaconta-3(33),4,6,9(32),10,12,14,23,25,30-decaen-8-yl]acetic acid] | 0.181 | 10.1 |  |
| COc1cc2cc3c1OS(=O)(=O)N(C3)[C@H](C)c1cc(ccc1C)[C@@H](CC(=O)O)c1ccc3c(nnn3CCCCO2)c1C [Example 23a, [(2R,8R)-24-Methoxy-2,4,31-trimethyl-27,27-dioxo-21,26-dioxa-27λ^6-thia-1,14,15,16-tetraazahexacyclo[20.5.3.1^3,70.1^9,130.0^12,160.0^25,29]dotriaconta-3(32),4,6,9(31),10,12,14,22,24,29-decaen-8-yl]acetic acid] | 50.5 |  | 3160 |
| Cc1ccc2cc1[C@@H](C)N1Cc3cc(ccc3OS1(=O)=O)OCCCCn1nnc3c(C)c(ccc31)[C@H]2CC(=O)O [Example 3b, [(2R,8S)-2,4,31-trimethyl-27,27-dioxo-21,26-dioxa-27λ^6-thia-1,14,15,16-tetraazahexacyclo[20.5.3.1^3,70.1^9,130.0^12,160.0^25,29]dotriaconta-3(32),4,6,9(31),10,12,14,22,24,29-decaen-8-yl]acetic acid] | 1.05 |  | 10.6 |
| Cc1c2ccc3c1nnn3CCCCOc1ccc3c(c1)CN(Cc1cc(F)cc(c1)C2CC(=O)O)S(=O)(=O)O3 (stereo not drawn) [Example 4, [5-Fluoro-31-methyl-27,27-dioxo-21,26-dioxa-27λ^6-thia-1,14,15,16-tetraazahexacyclo[20.5.3.1^3,70.1^9,130.0^12,160.0^25,29]dotriaconta-3(32),4,6,9(31),10,12,14,22,24,29-decaen-8-yl]acetic acid] | 255 |  | 3470 |
| Cc1c2ccc3c1nnn3CCCCOc1ccc3c(c1)CN(Cc1cccc(c1)C2CC(=O)O)S(=O)(=O)O3 (stereo not drawn) [Example 6, [31-Methyl-27,27-dioxo-21,26-dioxa-27λ^6-thia-1,14,15,16-tetraazahexacyclo[20.5.3.1^3,70.1^9,130.0^12,160.0^25,29]dotriaconta-3(32),4,6,9(31),10,12,14,22,24,29-decaen-8-yl]acetic acid] | 33.7 |  | 1330 |
| Cc1ccc2cc1[C@@H](C)N1Cc3cc(ccc3OS1(=O)=O)OCCN(C)CCCn1nnc3c(C)c(ccc31)[C@@H]2CC(=O)O [Example 34b, [(2R,8R)-2,4,20,33-tetramethyl-29,29-dioxo-23,28-dioxa-29λ^6-thia-1,14,15,16,20-pentaazahexacyclo[22.5.3.1^3,70.1^9,130.0^12,160.0^27,31]tetratriaconta-3(34),4,6,9(33),10,12,14,24,26,31-decaen-8-yl]acetic acid] | 1.85 |  | 31.1 |
